Source: patent US20250262201A1, “COMPOUNDS AND METHODS USEFUL FOR STABILIZING PHENYLALANINE HYDROXYLASE MUTATIONS” (Agios Pharmaceuticals, Inc., priority 2022, published 2025)

target: T1, human PAH with the R408W mutation (Homo sapiens, UniProt P00439, R408W); test: Cell Based Phenylalanine Flux Assay; settings: A375 cells expressing human R408W PAH; 24 hrs compound incubation; 13C-Tyrosine by LC-MS; average where tested multiple times; read-out: AC50
T1 construct: expressed in transfected cells
T1 sequence (P00439 1-452 R408W): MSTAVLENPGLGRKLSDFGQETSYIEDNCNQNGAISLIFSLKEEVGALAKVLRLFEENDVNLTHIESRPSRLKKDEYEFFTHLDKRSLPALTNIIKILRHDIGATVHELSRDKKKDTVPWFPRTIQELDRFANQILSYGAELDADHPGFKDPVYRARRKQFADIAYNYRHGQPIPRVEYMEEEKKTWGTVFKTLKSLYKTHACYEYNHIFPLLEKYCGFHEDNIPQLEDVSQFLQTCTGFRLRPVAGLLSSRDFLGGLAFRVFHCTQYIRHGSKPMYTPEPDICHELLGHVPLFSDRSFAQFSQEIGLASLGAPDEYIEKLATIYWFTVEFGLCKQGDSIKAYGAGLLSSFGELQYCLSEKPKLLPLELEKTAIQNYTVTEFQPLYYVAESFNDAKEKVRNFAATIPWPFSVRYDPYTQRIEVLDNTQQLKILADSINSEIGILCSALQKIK

Compound	AC50
C[C@H]1CN(C(=O)c2nnc(C(C)(C)C)o2)[C@H](c2cc3ccccc3cn2)c2nc[nH]c21 [Example 428, (5-(tert-butyl)-1,3,4-oxadiazol-2-yl)((4R,7S)-4-(isoquinolin-3-yl)-7-methyl-6,7-dihydro-1H-imidazo[4,5-c]pyridin-5(4H)-yl)methanone]	500 to 1000 nM
C[C@@H]1CN(C(=O)c2nnc(C(C)(C)C)o2)[C@@H](c2cc3ccccc3cn2)c2nc[nH]c21 [Example 429, (5-(tert-butyl)-1,3,4-oxadiazol-2-yl)((4S,7R)-4-(isoquinolin-3-yl)-7-methyl-6,7-dihydro-1H-imidazo[4,5-c]pyridin-5(4H)-yl)methanone]	1000 to 5000 nM
C[C@@H]1CN(C(=O)c2nnc(C(C)(C)C)o2)[C@H](c2cc3ccccc3cn2)c2nc[nH]c21 [Example 430, (5-(tert-butyl)-1,3,4-oxadiazol-2-yl)((4R,7R)-4-(isoquinolin-3-yl)-7-methyl-6,7-dihydro-1H-imidazo[4,5-c]pyridin-5(4H)-yl)methanone]	< 500 nM
O=C(c1cnn2ccccc12)N1CCc2[nH]cnc2[C@H]1c1cc2ccccc2cn1 [Example 431, (R)-(4-(isoquinolin-3-yl)-6,7-dihydro-1H-imidazo[4,5-c]pyridin-5(4H)-yl)(pyrazolo[1,5-a]pyridin-3-yl)methanone]	< 500 nM
O=C(c1nnc(N2CCOCC2)o1)N1CCc2[nH]cnc2[C@H]1c1cc2ccccc2cn1 [Example 433, (R)-(4-(isoquinolin-3-yl)-6,7-dihydro-1H-imidazo[4,5-c]pyridin-5(4H)-yl)(5-morpholino-1,3,4-oxadiazol-2-yl)methanone]	500 to 1000 nM
CC(C)(C)c1ncc(C(=O)N2CCc3[nH]cnc3[C@H]2c2cc3ccccc3cn2)o1 [Example 435, (R)-(2-(tert-butyl)oxazol-5-yl)(4-(isoquinolin-3-yl)-6,7-dihydro-1H-imidazo[4,5-c]pyridin-5(4H)-yl)methanone]	< 500 nM
O=C(c1nnc(-c2ncccc2F)o1)N1CCc2[nH]cnc2[C@H]1c1cc2ccccc2cn1 [Example 437, (R)-(5-(3-fluoropyridin-2-yl)-1,3,4-oxadiazol-2-yl)(4-(isoquinolin-3-yl)-6,7-dihydro-1H-imidazo[4,5-c]pyridin-5(4H)-yl)methanone]	< 500 nM
COc1ccc(-c2nnc(C(=O)N3CCc4[nH]cnc4[C@H]3c3cc4ccccc4cn3)o2)nc1 [Example 438, (R)-(4-(isoquinolin-3-yl)-6,7-dihydro-1H-imidazo[4,5-c]pyridin-5(4H)-yl)(5-(5-methoxypyridin-2-yl)-1,3,4-oxadiazol-2-yl)methanone]	< 500 nM
Cc1ccc(-c2nnc(C(=O)N3CCc4[nH]cnc4[C@H]3c3cc4ccccc4cn3)o2)nc1 [Example 439, (R)-(4-(isoquinolin-3-yl)-6,7-dihydro-1H-imidazo[4,5-c]pyridin-5(4H)-yl)(5-(5-methylpyridin-2-yl)-1,3,4-oxadiazol-2-yl)methanone]	< 500 nM
O=C(c1nnc(-c2cnn(C(F)F)c2)o1)N1CCc2[nH]cnc2[C@H]1c1cc2ccccc2cn1 [Example 440, (R)-(5-(1-(difluoromethyl)-1H-pyrazol-4-yl)-1,3,4-oxadiazol-2-yl)(4-(isoquinolin-3-yl)-6,7-dihydro-1H-imidazo[4,5-c]pyridin-5(4H)-yl)methanone]	< 500 nM
Cn1ccc(-c2nnc(C(=O)N3CCc4[nH]cnc4[C@H]3c3cc4ccccc4cn3)o2)n1 [Example 441, (R)-(4-(isoquinolin-3-yl)-6,7-dihydro-1H-imidazo[4,5-c]pyridin-5(4H)-yl)(5-(1-methyl-1H-pyrazol-3-yl)-1,3,4-oxadiazol-2-yl)methanone]	< 500 nM
O=C(c1nnc(-c2ccc(C(F)(F)F)cn2)o1)N1CCc2[nH]cnc2[C@H]1c1cc2ccccc2cn1 [Example 442, (R)-(4-(isoquinolin-3-yl)-6,7-dihydro-1H-imidazo[4,5-c]pyridin-5(4H)-yl)(5-(5-(trifluoromethyl)pyridin-2-yl)-1,3,4-oxadiazol-2-yl)methanone]	< 500 nM
Cn1cnc(-c2nnc(C(=O)N3CCc4[nH]cnc4[C@H]3c3cc4ccccc4cn3)o2)c1 [Example 443, (R)-(4-(isoquinolin-3-yl)-6,7-dihydro-1H-imidazo[4,5-c]pyridin-5(4H)-yl)(5-(1-methyl-1H-imidazol-4-yl)-1,3,4-oxadiazol-2-yl)methanone]	< 500 nM
Cn1cncc1-c1nnc(C(=O)N2CCc3[nH]cnc3[C@H]2c2cc3ccccc3cn2)o1 [Example 444, (R)-(4-(isoquinolin-3-yl)-6,7-dihydro-1H-imidazo[4,5-c]pyridin-5(4H)-yl)(5-(1-methyl-1H-imidazol-5-yl)-1,3,4-oxadiazol-2-yl)methanone]	500 to 1000 nM
O=C(c1nnc(-c2cccnc2)o1)N1CCc2[nH]cnc2[C@H]1c1cc2ccccc2cn1 [Example 445, (R)-(4-(isoquinolin-3-yl)-6,7-dihydro-1H-imidazo[4,5-c]pyridin-5(4H)-yl)(5-(pyridin-3-yl)-1,3,4-oxadiazol-2-yl)methanone]	< 500 nM
Cc1c(-c2nnc(C(=O)N3CCc4[nH]cnc4[C@H]3c3cc4ccccc4cn3)o2)cnn1C [Example 446, (R)-(5-(1,5-dimethyl-1H-pyrazol-4-yl)-1,3,4-oxadiazol-2-yl)(4-(isoquinolin-3-yl)-6,7-dihydro-1H-imidazo[4,5-c]pyridin-5(4H)-yl)methanone]	< 500 nM
Cn1nccc1-c1nnc(C(=O)N2CCc3[nH]cnc3[C@H]2c2cc3ccccc3cn2)o1 [Example 447, (R)-(4-(isoquinolin-3-yl)-6,7-dihydro-1H-imidazo[4,5-c]pyridin-5(4H)-yl)(5-(1-methyl-1H-pyrazol-5-yl)-1,3,4-oxadiazol-2-yl)methanone]	< 500 nM
O=C(c1nnc(-c2ccncc2)o1)N1CCc2[nH]cnc2[C@H]1c1cc2ccccc2cn1 [Example 448, (R)-(4-(isoquinolin-3-yl)-6,7-dihydro-1H-imidazo[4,5-c]pyridin-5(4H)-yl)(5-(pyridin-4-yl)-1,3,4-oxadiazol-2-yl)methanone]	< 500 nM
O=C(c1nnc(-c2cnn(C3CCC3)c2)o1)N1CCc2[nH]cnc2[C@H]1c1cc2ccccc2cn1 [Example 449, (R)-(5-(1-cyclobutyl-1H-pyrazol-4-yl)-1,3,4-oxadiazol-2-yl)(4-(isoquinolin-3-yl)-6,7-dihydro-1H-imidazo[4,5-c]pyridin-5(4H)-yl)methanone]	< 500 nM
Cc1nn(C)cc1-c1nnc(C(=O)N2CCc3[nH]cnc3[C@H]2c2cc3ccccc3cn2)o1 [Example 450, (R)-(5-(1,3-dimethyl-1H-pyrazol-4-yl)-1,3,4-oxadiazol-2-yl)(4-(isoquinolin-3-yl)-6,7-dihydro-1H-imidazo[4,5-c]pyridin-5(4H)-yl)methanone]	< 500 nM
O=C(c1nnc(-c2cc[nH]n2)o1)N1CCc2[nH]cnc2[C@H]1c1cc2ccccc2cn1 [Example 451, (R)-(5-(1H-pyrazol-3-yl)-1,3,4-oxadiazol-2-yl)(4-(isoquinolin-3-yl)-6,7-dihydro-1H-imidazo[4,5-c]pyridin-5(4H)-yl)methanone]	< 500 nM
O=C(c1cnn2cc(C3CC3)ccc12)N1CCc2[nH]cnc2[C@H]1c1cc2ccccc2cn1 [Example 452, (R)-(6-cyclopropylpyrazolo[1,5-a]pyridin-3-yl)(4-(isoquinolin-3-yl)-6,7-dihydro-1H-imidazo[4,5-c]pyridin-5(4H)-yl)methanone]	< 500 nM
COCCc1ccc2c(C(=O)N3CCc4[nH]cnc4[C@H]3c3cc4ccccc4cn3)cnn2c1 [Example 453, (R)-(4-(isoquinolin-3-yl)-6,7-dihydro-1H-imidazo[4,5-c]pyridin-5(4H)-yl)(6-(2-methoxyethyl)pyrazolo[1,5-a]pyridin-3-yl)methanone]	< 500 nM
O=C(c1nnc(-c2cn[nH]c2)o1)N1CCc2[nH]cnc2[C@H]1c1cc2ccccc2cn1 [Example 454, (R)-(5-(1H-pyrazol-4-yl)-1,3,4-oxadiazol-2-yl)(4-(isoquinolin-3-yl)-6,7-dihydro-1H-imidazo[4,5-c]pyridin-5(4H)-yl)methanone]	500 to 1000 nM
Cc1cnn(C)c1-c1nnc(C(=O)N2CCc3[nH]cnc3[C@H]2c2cc3ccccc3cn2)o1 [Example 455, (R)-(5-(1,4-dimethyl-1H-pyrazol-5-yl)-1,3,4-oxadiazol-2-yl)(4-(isoquinolin-3-yl)-6,7-dihydro-1H-imidazo[4,5-c]pyridin-5(4H)-yl)methanone]	< 500 nM
Cn1cc(-c2ccc3c(C(=O)N4CCc5[nH]cnc5[C@H]4c4cc5ccccc5cn4)cnn3c2)cn1 [Example 456, (R)-(4-(isoquinolin-3-yl)-6,7-dihydro-1H-imidazo[4,5-c]pyridin-5(4H)-yl)(6-(1-methyl-1H-pyrazol-4-yl)pyrazolo[1,5-a]pyridin-3-yl)methanone]	< 500 nM
CN1CCN(c2ccc3c(C(=O)N4CCc5[nH]cnc5[C@H]4c4cc5ccccc5cn4)cnn3c2)CC1 [Example 457, (R)-(4-(isoquinolin-3-yl)-6,7-dihydro-1H-imidazo[4,5-c]pyridin-5(4H)-yl)(6-(4-methylpiperazin-1-yl)pyrazolo[1,5-a]pyridin-3-yl)methanone]	< 500 nM
O=C(c1cnn2cc(N3CCOCC3)ccc12)N1CCc2[nH]cnc2[C@H]1c1cc2ccccc2cn1 [Example 458, (R)-(4-(isoquinolin-3-yl)-6,7-dihydro-1H-imidazo[4,5-c]pyridin-5(4H)-yl)(6-morpholinopyrazolo[1,5-a]pyridin-3-yl)methanone]	< 500 nM
